Among the data in BindingDB's records for doi:10.1021/jm900681h (Amgen, 2009) are IC50 values, retold here.

Biological target in the first test: not listed separately
Put plainly: Induction of p53 in human HCT116 cells coexpressing pp53TA-luc assessed as inhibition of cell proliferation after 8 hrs by firefly/renilla luciferase reporter assay.
For orientation: IC50 means the concentration needed to halve the response being measured. `CN1C2=C(C(c3ccc(Cl)cc3)Oc3ccccc32)C(c2ccc(Br)cc2)n2ncnc21` (racemic) [(+/-)-syn-7-(4-Bromophenyl)-6-(4-chlorophenyl)-12-methyl-7,12-dihydro-6H-chromeno[4,3-d][1,2,4]triazolo[1,5-a]pyrimidine]: the IC50 stood at 15 µM.

As for `CCOc1cccc2c1C1=C(C(c3ccc(Br)cc3)O2)C(c2ccc(Br)cc2)n2ncnc2N1C` (racemic) [(+/-)-syn-6,7-Bis(4-bromophenyl)-1-ethoxy-12-methyl-7,12-dihydro-6H-chromeno[4,3-d][1,2,4]triazolo[1,5-a]pyrimidine], the IC50 turned out to be 6.5 µM.

As to `Cc1cc2c(cc1F)OC(c1ccc(Br)cc1)C1=C2N(C)c2ncnn2C1c1ccc(Br)cc1` (racemic) [(+/-)-syn-6,7-Bis(4-bromophenyl)-3-fluoro-2,12-dimethyl-7,12-dihydro-6H-chromeno[4,3-d][1,2,4]triazolo[1,5-a]pyrimidine], the IC50 worked out at 11.4 µM.

As for `Cc1ccc2c(c1)C1=C(C(c3ccc(Br)cc3)O2)C(c2ccc(Br)cc2)n2ncnc2N1C` (configuration not stated), the half-inhibitory concentration (IC50) was determined as 3 µM.

For the compound `CN1C2=C(C(c3ccc(Br)cc3)Oc3ccc(F)cc32)C(c2ccc(Br)cc2)n2ncnc21` (racemic) [(+/-)-syn-6,7-Bis(4-bromophenyl)-2-fluoro-12-methyl-7,12-dihydro-6H-chromeno[4,3-d][1,2,4]triazolo[1,5-a]pyrimidine], the IC50 came out at 44.3 µM.

For `CN1C2=C(C(c3ccc(Cl)cc3)Oc3ccccc32)C(c2ccc(Cl)cc2)n2ncnc21` (racemic) [(+/-)-syn-6,7-Bis(4-chlorophenyl)-12-methyl-7,12-dihydro-6Hchromeno[4,3-d][1,2,4]triazolo[1,5-a]pyrimidine], the IC50 was 9.37 µM.

In the next test the target is Cellular tumor antigen p53 (Homo sapiens, UniProt P04637). The experiment in a line: Induction of p53-Ser15 phosphorylation in human HCT116 cells after 24 hrs.
Sequence of Cellular tumor antigen p53 (P04637 whole entry): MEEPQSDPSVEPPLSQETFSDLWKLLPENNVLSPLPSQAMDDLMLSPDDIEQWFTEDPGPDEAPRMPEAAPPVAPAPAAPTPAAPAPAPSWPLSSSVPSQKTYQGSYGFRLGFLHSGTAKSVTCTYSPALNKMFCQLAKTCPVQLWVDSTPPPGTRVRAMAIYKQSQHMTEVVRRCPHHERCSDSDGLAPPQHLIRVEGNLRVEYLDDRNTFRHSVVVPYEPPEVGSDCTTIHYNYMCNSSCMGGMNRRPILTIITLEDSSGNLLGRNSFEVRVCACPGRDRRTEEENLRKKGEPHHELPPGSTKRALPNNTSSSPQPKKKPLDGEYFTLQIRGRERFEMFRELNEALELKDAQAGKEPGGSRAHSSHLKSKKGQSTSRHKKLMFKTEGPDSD
Take `Cc1ccc2c(c1)C1=C(C(c3ccc(Br)cc3)O2)C(c2ccc(Br)cc2)n2ncnc2N1C` (configuration not stated): the midpoint of inhibition, the IC50, lay at 1 µM.
